Test [1] concerns Brown Norway rats with unilateral optic nerve transection. Nature of the test: Optic nerve transection, optic nerve fiber counting. The class given is in vivo, Rattus norvegicus. The settings on record: for FIBER NUMBER ± SEM / PERCENT DIFFERENCE ± SEM in fiber number between transected and normal eye: 10 mg/kg i.p. daily. The method, then: (§1) All experiments complied with the Association for Research in Vision and Ophthalmology Statement for the Use of Animals in Ophthalmic and Vision Research. 82 male Brown Norway rats (Rattus norvegicus), each weighing approximately 250 gm, were treated using procedures approved by the Animal Care Committee of the Johns Hopkins University School of Medicine. The rats were housed with a 12 hour light/12 hour dark cycle and fed ad libitum.
OPTIC NERVE TRANSECTION: The optic nerve was transected unilaterally in 26 rats under intraperitoneal pentobarbital anesthesia. The conjunctiva was opened with scissors and the optic nerve exposed by traction on extraocular muscles. The transection was performed with microscissors 5 mm posterior to the globe, with specific attention to avoidance of injury to major ocular blood vessels. Immediately after transection, the retina was examined ophthalmoscopically to assure that the retinal arterial blood supply was not disrupted. The conjunctiva was closed with absorbable suture and the eye dressed with antibiotic ointment. Beginning on the day of transection, the rats were treated daily with intraperitoneal injections of either a vehicle (9 rats with 50 mM HEPES-buffered saline) or a NAALADase inhibitor (8 rats with 10 mg/kg of Compound A and 9 rats with 10 mg/kg of Compound B). 5 saline treated rats, 3 Compound A treated rats and 4 Compound B treated rats were sacrificed at 2 weeks, and the remaining rats at 4 weeks, after transection.
(§2) OPTIC NERVE COUNTING: The rats were sacrificed by exsanguination under deep pentobarbital anesthesia. They were perfused through the heart with 2% paraformaldehyde/2% glutaraldehyde in 0.1 M phosphate buffer, pH 7.2, and the eyes with attached optic nerves were removed. A cross-section of the optic nerve from both experimental (glaucoma or transection) and control eyes was removed 1.5 mm posterior to the globe, 1 mm in thickness, and post-fixed in 2% osmium tetroxide in buffer. These were processed into epoxy resin, sectioned at 1 micron and stained with toluidine blue.
(§3) The area of the optic nerve cross-section was measured by outlining its outer border at 10× magnification on an image analysis system (Universal Imaging Corp., Westchester, Pa.) with Synsys digital camera and Metamorph software. Three area measurements were taken and the mean value was determined. To measure the density and fiber diameter distributions, images were captured with a 100× phase contrast objective from 10 different areas of each nerve. These were edited to eliminate non-neural objects and the size of each axon internal to the myelin sheath (its minimum diameter) and the density of axons/square mm were calculated for each image and nerve. The mean density was multiplied by total nerve area to yield fiber number for each nerve. The total fiber number in glaucoma or transection nerves was compared to the normal, fellow eye of each rat to yield a percent loss value. The number of axons counted among the 10 images was an approximately 20% sample of the 80–90,000 axons in normal rat nerves. The person measuring axon number was masked to the protocol conducted on the nerves.

In test [2] the test system is Brown Norway rats with unilateral elevation of intraocular pressure. In words: Experimental rat glaucoma (IOP elevation), optic nerve fiber counting. The class given is in vivo. Conditions: 8 week group, 10 mg/kg i.p. daily. The method, then:
as §1
EXPERIMENTAL GLAUCOMA: Unilateral elevation of intraocular pressure (“IOP”) was produced in 56 rats by microinjection of hypertonic saline into episcleral veins, following procedures described in Morrison, J. et al., IOVS (March 1998) 39:526–531. Beginning on the day of IOP elevation, the rats were treated daily with intraperitoneal injections of either a vehicle (23 rats with 50 mM HEPES-buffered saline) or a NAALADase inhibitor (11 rats with 10 mg/kg of Compound A and 22 rats with 10 mg/kg of Compound B). 11 saline treated rats, 11 Compound A treated rats and 11 Compound B treated rats were sacrificed at 8 weeks, and the remaining rats at 12 weeks, after initial IOP elevation.
as §2, §3

Test [3] relates to STZ-diabetic rats. In words: Diabetic neuropathy in STZ model (nerve conduction velocity). Format: in vivo, rat. Conditions: 10 mg/kg daily, 4, 8 and 12 weeks. Here is the method: Motor and sensory nerve conduction velocity was also measured in STZ-diabetic animals after 4, 8 and 12 weeks of treatment (see De Koning et al., supra, for a description of the experimental method). Briefly, stimulating needle electrodes were inserted close to the sciatic and tibial nerves with recording electrodes being placed subcutaneously over the distal foot muscles, in anesthetized rats.

The subject of test [4] is transgenic G1H mice. In words: Effect on onset of ALS in transgenic FALS mice. The class given is in vivo, mouse. The method, then:
The effect of NAALADase inhibitors on the onset of ALS was tested using the transgenic mice model of familial Amyotrophic Lateral Sclerosis (FALS), which is detailed in Gurney, M., Annals of Neurology (1996) 39:147–157, and otherwise well known in the art. One month old transgenic G1H mice were treated with daily intraperitoneal injections of a vehicle (50 mM HEPES-buffered saline) or a NAALADase inhibitor (50 mg/kg Compound A). Clinical symptoms of the mice were monitored daily. The onset of clinical disease was scored by examining each mouse for its shaking of limbs when suspended in the air by its tail, cross spread of spinal reflexes, hindlimb paralysis, body weight and wheel running activity.

For test [5], the system named is STZ-diabetic rats. In words: Neuropathic pain in STZ model (thermal withdrawal latency). The class given is in vivo, rat. Conditions: 10 mg/kg i.p. daily, treatment from 45 days post STZ. Here is the method:
Male Sprague-Dawley rats (200–225 g) were rendered diabetic by intravenous administration of streptozotocin (“STZ”, 70 mg/kg in phosphate buffered saline). Diabetic animals were divided into five groups: one group receiving Compound A (10 mg/kg or 1 mg/kg), Compound D (10 mg/kg or 1 mg/kg) or vehicle. Another group of animals (non-STZ treated) served as non-diabetic controls. Drug/vehicle treatment was started in diabetic animals 45 days post-STZ administration. STZ-induced diabetic rats were tested for sensitivity to a heat source as soon as blood glucose levels rose to 320 mg/dl or above (30 days post STZ). The rats were then acclimated to a Hargreaves apparatus and thermal nociception was monitored using an infrared heat source directed into the dorsal surface of the hindpaw, and the time taken for the animal to remove its paw noted to the nearest 0.1 seconds (see Hargreaves et al., supra, for detailed experimental method). The intensity of the beam source was adjusted such that the mean latency for control animals (non-STZ treated) was approximately 10 seconds. Each animal was tested 8 times and the mean difference score (between mean non-diabetic control latency and mean diabetic latency) are graphically presented in FIGS. 7A and 7B.

Test [6] relates to BB/W diabetic rats. Nature of the test: Progression of neuropathic pain and nerve conduction deficits in BB/W model. Format: in vivo, rat. The source says:
Male BB/W rats (BRI, Mass) spontaneously develop a cell mediated autoimmune destruction of pancreatic B cells, resulting in onset of insulin-dependent (Type I) diabetes (Guberski 1994). […] This renders them valuable for experimental trials of new compounds for future treatments of this major disorder. In the present study, Compound D and Compound A were examined for their ability to alter the progression of diabetic neuropathy. The rats received daily injection of Compound D or Compound A (10 mg/kg i.p.) or vehicle, starting at the onset of diabetes (hyperglycemia) and up to 6 months thereafter. Another group of non-diabetic rats also receiving vehicle were tested. All animals were continuously monitored for body weight, urine volume, blood sugar and glycated haemoglobin. In the first month of the study, all animals were tested for thermal nociception in a Hargreaves apparatus, weekly. After the first month this was done biweekly and then monthly. The testing consists of directing an infrared heat source onto the dorsal surface of the rat hindpaw and noting the time taken for the animal to remove its paw (see Hargreaves et al., supra, for a description of the experimental method). Each animal was tested 8 times and the mean withdrawal latency noted.
Nerve conduction velocity was also measured every two weeks through the first eight weeks of treatment and every month thereafter through to the six months of treatment (see De Koning et al., Peptides, Vol. 8, No. 3, pp. 415–22 (1987) for a description of the experimental method). […] This was apparent starting at 8 weeks of treatment and persisted to a similar degree through to the six month termination point of the study.

Test [7] has as its system ischemic cell cultures. In words: Effect of NAALADase inhibition on TGF-β in in vitro ischemia model. The class given is cell-based. The method, then: A NAALADase inhibitor, Compound C, was added to ischemia cell cultures to determine its effect on TGF-β levels during stroke.
TGF-β neutralizing antibodies were then added to the ischemic cell cultures.

Test [8] has as its system chronic constrictive injury-induced rats. In words: Neuropathic pain in chronic constriction injury (CCI) model. The class given is in vivo, rat. The settings on record: 50 mg/kg i.p. daily from 10 days post surgery, significant from 11 days of treatment. Here is the method:
Sciatic nerve ligation, consisting of 4 ligatures tied loosely around the sciatic nerve at 1 mm intervals proximal to the nerve trifurcation, was performed on rats. […] The rats were habituated to a Hargreaves apparatus. An infrared heat source was directed onto the dorsal surface of each rat's hindpaws and the time taken for the rat to withdraw its paws was noted. The difference in scores between the latency of the response for the paw on the operated side versus the paw on the unoperated control side was determined.
The rats received either Compound C (50 mg/kg i.p. daily) or a vehicle starting 10 days post surgery. […] Normal (unoperated) rats had approximately equal latencies for both paws. This effect was significant starting at 11 days of drug treatment and persisted through to the end of the study (for 21 days of daily dosing).

Test [9] has as its system rats subjected to middle cerebral artery occlusion. In words: Effect of NAALADase inhibition on TGF-β in in vivo ischemia model (MCAO). On the set-up: species or system rat. From the text: The effect of TGF-β neutralizing antibodies on the neuroprotective effect of Compound C was also studied in rats following MCAO.
In test [10] the test system is NAALADase. The settings on record: read-out: Km of NAALADase for NAAG; cited from earlier work.
Setting [11] is: 2 weeks survival after transection.
Setting [12] is: 4 weeks survival after transection.

Molecules are shown by their SMILES. Where a SMILES comes first, the peptide text is derived from it.

By Km is commonly meant the concentration of substrate that gives half-maximal velocity.

In the case of `O=C(O)CCC(CP(=O)(O)Cc1c(F)c(F)c(F)c(F)c1F)C(=O)O` (centres unmarked) [Compound A], the “remaining axons relative to saline-treated rats” value in test [1] (2 weeks after transection) came to 3 times. Further, the results for the “FIBER NUMBER ± SEM” value in test [1] (setting [11]), in [1] (setting [12]) and in test [2] were 26,426 ± 13,293, 13,599 ± 3,519 and 79156 ± 2436, respectively. Further, the “PERCENT DIFFERENCE ± SEM in fiber number between transected and normal eye” value in test [1] (setting [11]) turned out to be 65.3 ± 17.8%; in [1] (setting [12]), 82.4 ± 4.0%. For the same molecule, the “PERCENT DIFFERENCE ± SEM in fiber number between glaucoma and normal eye” value in test [2] (positive = fewer fibers in glaucoma eye) is reported as −1.82 ± 2.92%. Moreover, the “motor and sensory nerve conduction velocities” value in test [3] is recorded as “tended to improve (increase)”. Besides, the “DIFFERENCE in disease onset, treated versus vehicle” value in test [4] (Study 1) was determined as 32; in [4] (Study 2) it was 25. The “DISEASE ONSET FOR COMPOUND A TREATED MICE” value in [4] (Study 1, 50 mg/kg i.p. daily) is reported as 221 days; in [4] (Study 2, 50 mg/kg i.p. daily), 166 days. Further, in test [5], the “hyperalgesic response (withdrawal latency difference score)” value is listed as “completely reversed”. In test [6] (10 mg/kg daily, from 8 weeks to six months), the “nerve conduction velocity deficits versus diabetic vehicle controls” value is listed as “significantly less severe nerve conduction deficits”. The “withdrawal latency versus diabetic vehicle-treated rats” value in [6] (10 mg/kg i.p. daily, from 4 weeks through six months of treatment) is listed as “longer withdrawal latencies”.
Turning to `O=C(O)CCC(CP(=O)(O)O)C(=O)O` (centres unmarked) [Compound C, 2-(phosphonomethyl)-pentanedioic acid], in test [7] (FIG. 1), the “TGF-β1 concentrations in ischemic cell cultures” value is reported as “increased concentrations”. For the same molecule, the “TGF-β2 concentrations in ischemic cell cultures” value in test [7] (FIG. 2) is “increased concentrations”. Besides, the “neuroprotective effect after addition of TGF-β neutralizing antibodies” value in test [7] (in vitro ischemia model, FIG. 3) is “blocked”. Further, the “neuroprotective effect after addition of FGF antibody” value in test [7] (in vitro ischemia model, FIG. 4) is “did not block”. The “difference scores between the two paws (withdrawal latency)” value in [8] is reported as “dramatically normalized”. In addition, the “neuroprotective effect in vivo with TGF-β neutralizing antibodies” value in test [9] (FIG. 5) was “significantly attenuated”. Further, the “TGF-β1 levels during occlusion and reperfusion” value in test [9] (microdialysis, FIG. 6) is “significant rise”.
For the molecule `CC(=O)N[C@@H](CC(=O)O)C(=O)N[C@@H](CCC(=O)O)C(=O)O` [NAAG, N-acetyl-aspartyl-glutamate] (Ac-Asp-Glu-OH), in test [10], the Michaelis-Menten constant (Km) is 0.54 µM.
